Columns and labels:
[1] = tested on: T. cruzi Tulahuen strain epimastigotes; test: Screening against extracellular epimastigotes, Tulahuen strain (resazurin); type: cell-based, Trypanosoma cruzi
Description: (§1) Three different T. cruzi […] strains—MHOM/Pe/2011/Arequipa, discrete typing unit (DTU) V [26]; IRHOD/CO/2008/SN3, DTU I [27]; TINF/CH/1956/Tulahuen, DTU VI [26]—were grown at 28 °C in Gibco® RPMI 1640 Medium supplemented as previously reported, and used for in vitro screening.
(§2) Trypanocidal activity against epimastigotes was tested as previously reported. In brief, 5 × 10^5 mL^−1 epimastigotes culture medium were treated by adding the compounds in serial dilutions from 100 to 0.2 µM in 96-well plates (200 µL·well^−1) for 48 h. BZN and untreated growth control were also included in triplicate. Later, 20 μL of resazurin sodium salt (Sigma-Aldrich, St. Louis, MO, USA) was added, and the plates were incubated for another 24 h. Finally, the absorbance of the wells was measured at 570/600 nm and related to the control. The trypanocidal activity was expressed as the IC50 (inhibitory concentration 50) value using GraphPad Prism 6 software.

[2] = tested on: Trypanosoma cruzi epimastigotes; test: Excreted metabolites by 1H NMR; type: cell-based; settings: epimastigotes at IC25 concentration, 72 h; succinate and pyruvate most increased
Description: 5 × 10^5 mL^−1 epimastigotes culture medium were treated by adding the compounds at IC25 concentrations in 25 cm^2 cell culture flasks for 72 h. Untreated controls were also included in triplicate. Cultures were then centrifuged and filtered, and the metabolites of the supernatants were measured by ^1H NMR (VARIAN DIRECT DRIVE 500 MHz […]) with AutoX probe, D2O as solvent and 2,2-dimethyl-2-silapentane-5-sulphonate as the reference signal. Analyses were conducted as previously reported.

T. cruzi Arequipa strain [3] = test: Nested amastigotes detection by PCR in nine target organs/tissues of infected BALB/c mice; type: in vivo, Trypanosoma cruzi; settings: oral 20 mg/Kg/day for 5 days
Description: (§3) Infection was carried out by intraperitoneal inoculation of 5 × 10^5 BTs of T. cruzi Arequipa strain per mouse in 0.2 mL PBS [26]. The infection was monitored and on the 10th day post-infection (dpi), when BTs were visible in the bloodstream, the infection was confirmed.
(§4) Mice were divided into four groups (n = 3 per group): 0, negative control group (uninfected and untreated mice); I, positive control group (infected and untreated mice); II, BZN group (mice infected and treated with BZN); III, 15 group (mice infected and treated with 15).
(§5) The treatment for mice treated in the acute and chronic CD began when the infection was confirmed (10th dpi) and was stablished that the animals had entered the chronic CD (75th dpi), respectively (Scheme 1). Compound 15 and BZN were orally administered for 5 consecutive days at a dose of 20 mg·Kg^−1·day^−1.
After CP-induced immunosuppression, the mice were euthanised using CO2 by exsanguination via cardiac puncture, and blood was collected. Then, 9 target organs/tissues were harvested: adipose, bone marrow, brain, oesophagus, heart, lung, muscle, spleen, and stomach. These organs/tissues were perfused with pre-warmed PBS to avoid contamination with BTs, and stored at −80 °C. In addition, spleens were weighed to assess splenomegaly.
DNA extraction of the target organs/tissues was performed using Wizard® Genomic DNA Purification Kit. DNA was subjected to amplification by PCR based on the sequence of the T. cruzi splice leader (SL) intergenic region using two published primers (TC and TC1) that allow the amplification of a 300 base pairs fragment in different biological samples. […]

T. cruzi Arequipa strain [4] = test: Monitoring of acute parasitaemia by counting in infected BALB/c mice; type: in vivo, Trypanosoma cruzi; settings: acute infection
Description: (§6) All animal work (Scheme 1) and maintenance was performed under RD53/2013 and approved by the Ethics Committee on Animal Experimentation (CEEA) of the University of Granada, Spain. Female BALB/c mice (aged 10–12 weeks and 20–22 g) were used in the subsequent in vivo assays.
as §3, §4, §5
[…]. The fresh blood microscopic examination was performed from the 7th day until the day when parasitaemia was not detected (Scheme 1).

T. cruzi Arequipa strain [5] = test: Infection reactivation by cyclophosphamide immunosuppression in infected BALB/c mice; type: in vivo, Trypanosoma cruzi; settings: oral 20 mg/Kg/day for 5 days, related to control group
[6] = tested on: T. cruzi Tulahuen strain amastigotes; test: Screening against intracellular amastigotes in Vero cells, Tulahuen strain (Giemsa counting); type: cell-based, Trypanosoma cruzi
Description: (§7) TINF/CH/1956/Tulahuen, DTU VI [26]—were grown at 28 °C in Gibco® RPMI 1640 Medium supplemented as previously reported, and used for in vitro screening. Trypanocidal activity against amastigotes was tested as previously reported. In brief, bloodstream trypomastigotes (BTs), obtained by cardiac puncture from infected BALB/c mice, were used to infect 1 × 10^4 Vero cells·well^−1 in 24-well plates with rounded coverslips at a multiplicity of infection (MOI) ratio of 10:1. After 24 h of infection, non-internalized trypomastigotes were washed and the infected cells were treated by adding the compounds in serial dilutions from 50 to 0.5 µM in […] for 72 h. BZN and untreated growth controls were also included in triplicate. Later, the number of amastigotes and infected cells were determined in Giemsa stained preparations by analysing 500 host cells randomly distributed in microscopic fields. The trypanocidal activity was expressed as the IC50 using GraphPad Prism 6 software (version 6.07).

[7] = tested on: T. cruzi SN3 strain epimastigotes; test: Screening against extracellular epimastigotes, SN3 strain (resazurin); type: cell-based, Trypanosoma cruzi
Description: as §1, §2

[8] = tested on: epimastigotes of T. cruzi Arequipa strain; test: Mitochondrial membrane potential by flow cytometry (rhodamine 123); type: cell-based, Trypanosoma cruzi; settings: compounds at IC25 concentrations, 72 h; KCN 10 mM, 40 min; mean of three ± SD
[9] = type: in vivo, BALB/c mice; settings: oral 20 mg/Kg/day for 5 days; acute and chronic infections
Description: as §6, §3, §4, §5

[10] = tested on: T. cruzi Tulahuen strain trypomastigotes; test: Screening against bloodstream trypomastigotes, Tulahuen strain (resazurin); type: cell-based, Trypanosoma cruzi
[11] = tested on: T. cruzi Arequipa strain amastigotes; test: Screening against intracellular amastigotes in Vero cells, Arequipa strain (Giemsa counting); type: cell-based, Trypanosoma cruzi
Description: as §7

[12] = IC50 Vero cells/IC50 epimastigotes
[13] = treatment in the acute infection
[14] = IC50 Vero cells/IC50 amastigotes

Compound: c1cc2nc(c1)CNCCN(CCNCc1ccc3ccc4ccc(CNCCN5CCNCc6cccc(n6)CNCC5)nc4c3n1)CCNC2 [Compound 15]
- Selectivity Index T. cruzi Tulahuen Strain E [1, 12]: 57.4
- IC50 ([1]; Trypanosoma cruzi, TULAHUEN, epimastigotes, 48 h treatment + 24 h resazurin, mean of three ± SD, read-out: Activity IC50 T. cruzi Tulahuen Strain E): 11.4 ± 1.1 µM
- excretion of catabolites compared with untreated parasites [2]: notably increased
- clearance of nested parasites in target organs/tissues (parasite-free organs/tissues, PCR) (T. cruzi Arequipa strain [3]; [13]): 67%
- clearance of nested parasites in target organs/tissues (parasite-free organs/tissues, PCR) (T. cruzi Arequipa strain [3]; treatment in the chronic infection): 89%
- parasitaemia reduction on the day of maximum parasitaemia (T. cruzi Arequipa strain [4]; oral 20 mg/Kg/day for 5 days from 10th dpi, vs untreated control): ~ 65%
- parasitaemia undetectable, days before control mice (T. cruzi Arequipa strain [4]; oral 20 mg/Kg/day for 5 days, control detectable up to 50 dpi): 5 days
- reactivation of parasitaemia after immunosuppression (T. cruzi Arequipa strain [5]; [13]): 60%
- reactivation of parasitaemia after immunosuppression (T. cruzi Arequipa strain [5]; treatment in the chronic infection (from 75th dpi)): 26%
- Selectivity Index T. cruzi Tulahuen Strain A [6, 14]: 96.3
- IC50 ([6]; Trypanosoma cruzi, TULAHUEN, amastigotes in Vero cells, 72 h, mean of three ± SD): 6.8 ± 0.7 µM
- Selectivity Index T. cruzi SN3 Strain E [7, 12]: 38.7
- IC50 ([7]; Trypanosoma cruzi, epimastigotes, 48 h treatment + 24 h resazurin, mean of three ± SD, read-out: Activity IC50 T. cruzi SN3 Strain E): 16.9 ± 1.4 µM
- Inhibition on mitochondrial membrane potential with respect to untreated epimastigotes [8]: 43.1%
- death or body mass loss of treated mice [9]: none of the mice died or lost more than 10% body mass
- Selectivity Index T. cruzi Tulahuen Strain T ([10]; IC50 Vero cells/IC50 trypomastigotes): 83.6
- IC50 ([10]; Trypanosoma cruzi, TULAHUEN, trypomastigotes, 24 h + 4 h resazurin, mean of three ± SD): 7.8 ± 0.7 µM
- Selectivity Index T. cruzi Arequipa Strain A [11, 14]: 262.0
- IC50 ([11]; Trypanosoma cruzi, amastigotes in Vero cells, 72 h, mean of three ± SD): 2.5 ± 0.3 µM
